The values that follow come from US11124488B2, “Preparation of 2-([1,2,3]triazol-2-yl)-benzoic acid derivatives” (IDORSIA PHARMACEUTICALS LTD, priority 2017, dated 2021).

Consider `COc1ccc(-n2nccn2)c(C(=O)N2CCC[C@@]2(C)C(=O)O)c1` [Reference Example 4.2, (S)-1-(5-methoxy-2-(2H-1,2,3-triazol-2-yl)benzoyl)-2-methylpyrrolidine-2-carboxylic acid], for which the melting point (usually the temperature, or range, at which the solid turns liquid) came out at 178 °C. The value for `COc1ccc(-n2nccn2)c(C(=O)N2CCC[C@@]2(C)C(=O)Nc2ccc(Cl)c(C)c2N)c1` [Reference Example 4.3, (S)—N-(2-amino-4-chloro-3-methylphenyl)-1-(5-methoxy-2-(2H-1,2,3-triazol-2-yl)benzoyl)-2 methylpyrrolidine-2-carboxamide] was 185 °C.
